What was measured:
[1] = target: Matrix metalloproteinase-9 (Homo sapiens, UniProt P14780); assay: biochemical; type: cell-based;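 further: inhibition of isolated MMP-9 enzyme activity toward a synthetic peptide substrate, from the DrugMatrix protease screening panel; in other assays of this panel Not Active means under 50% inhibition at 10 µM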
[2] = target: T1, Neuropeptide Y receptor type 2 (Homo sapiens, UniProt P49146); type: cell membranes, KAN-TS, Membrane; settings: kan-ts; further: in other assays of this panel Not Active means under 50% inhibition at 10 µM
T1 sequence (P49146 whole entry): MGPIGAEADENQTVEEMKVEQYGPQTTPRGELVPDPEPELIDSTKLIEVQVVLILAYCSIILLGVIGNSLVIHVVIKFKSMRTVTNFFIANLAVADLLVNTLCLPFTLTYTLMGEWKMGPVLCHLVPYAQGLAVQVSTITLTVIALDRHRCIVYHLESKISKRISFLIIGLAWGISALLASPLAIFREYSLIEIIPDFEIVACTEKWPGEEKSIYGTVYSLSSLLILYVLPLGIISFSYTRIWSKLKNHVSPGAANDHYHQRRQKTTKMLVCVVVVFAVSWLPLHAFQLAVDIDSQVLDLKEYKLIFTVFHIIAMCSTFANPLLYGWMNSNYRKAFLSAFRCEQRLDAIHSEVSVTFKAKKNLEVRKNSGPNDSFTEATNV

Endothelin-1 receptor = target: T2, Endothelin-1 receptor (Homo sapiens, UniProt P25101); type: cell membranes, Membrane; settings: cho-k1; further: in other assays of this panel Not Active means under 50% inhibition at 10 µM
T2 sequence (P25101 whole entry): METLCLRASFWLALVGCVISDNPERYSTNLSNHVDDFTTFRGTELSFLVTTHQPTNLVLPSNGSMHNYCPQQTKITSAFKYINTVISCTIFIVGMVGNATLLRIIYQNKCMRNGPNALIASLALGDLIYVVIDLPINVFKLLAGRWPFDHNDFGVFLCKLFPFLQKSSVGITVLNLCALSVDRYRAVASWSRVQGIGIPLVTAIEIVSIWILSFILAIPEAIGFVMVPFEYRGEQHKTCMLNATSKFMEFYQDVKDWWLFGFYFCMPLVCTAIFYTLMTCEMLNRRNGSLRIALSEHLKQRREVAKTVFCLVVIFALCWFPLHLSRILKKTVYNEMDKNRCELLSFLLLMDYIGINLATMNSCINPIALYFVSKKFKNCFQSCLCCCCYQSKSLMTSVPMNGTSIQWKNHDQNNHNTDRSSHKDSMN

[3] = target: 5-hydroxytryptamine receptor 1B (Rattus norvegicus, UniProt P28564); type: cell membranes, Wistar, Cerebral cortex, Membrane; further: in other assays of this panel Not Active means under 50% inhibition at 10 µM
5-hydroxytryptamine receptor 1B, sequence (P28564 whole entry): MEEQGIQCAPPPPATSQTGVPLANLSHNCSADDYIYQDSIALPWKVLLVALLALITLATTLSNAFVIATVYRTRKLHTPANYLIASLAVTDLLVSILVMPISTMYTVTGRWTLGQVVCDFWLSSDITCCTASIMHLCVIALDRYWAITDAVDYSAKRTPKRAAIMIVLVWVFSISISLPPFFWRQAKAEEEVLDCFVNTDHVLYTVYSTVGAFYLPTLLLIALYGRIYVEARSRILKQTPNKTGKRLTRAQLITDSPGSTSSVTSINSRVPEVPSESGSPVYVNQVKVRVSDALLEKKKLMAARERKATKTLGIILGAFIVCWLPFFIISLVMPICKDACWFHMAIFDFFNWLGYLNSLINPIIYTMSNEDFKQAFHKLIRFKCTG

[4] = target: Mitogen-activated protein kinase 14 (Homo sapiens, UniProt Q16539); design: species or system Escherichia coli
Mitogen-activated protein kinase 14, sequence (Q16539 whole entry): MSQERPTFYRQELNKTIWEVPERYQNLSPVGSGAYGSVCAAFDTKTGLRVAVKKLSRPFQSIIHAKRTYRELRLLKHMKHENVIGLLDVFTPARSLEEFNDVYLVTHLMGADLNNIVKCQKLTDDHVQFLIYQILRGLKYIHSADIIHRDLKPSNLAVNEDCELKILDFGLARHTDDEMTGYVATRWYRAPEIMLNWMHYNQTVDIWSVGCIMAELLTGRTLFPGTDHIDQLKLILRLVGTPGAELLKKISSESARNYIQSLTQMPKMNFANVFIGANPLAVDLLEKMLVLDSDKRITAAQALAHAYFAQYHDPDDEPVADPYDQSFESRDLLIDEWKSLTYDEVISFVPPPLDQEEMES

D(3) dopamine receptor = D(3) dopamine receptor (Homo sapiens, UniProt P35462); assay: DRUGMATRIX: Dopamine D3 radioligand binding (ligand: [3H] Spiperone); type: cell membranes, CHO, Membrane
D(3) dopamine receptor, sequence (P35462 whole entry): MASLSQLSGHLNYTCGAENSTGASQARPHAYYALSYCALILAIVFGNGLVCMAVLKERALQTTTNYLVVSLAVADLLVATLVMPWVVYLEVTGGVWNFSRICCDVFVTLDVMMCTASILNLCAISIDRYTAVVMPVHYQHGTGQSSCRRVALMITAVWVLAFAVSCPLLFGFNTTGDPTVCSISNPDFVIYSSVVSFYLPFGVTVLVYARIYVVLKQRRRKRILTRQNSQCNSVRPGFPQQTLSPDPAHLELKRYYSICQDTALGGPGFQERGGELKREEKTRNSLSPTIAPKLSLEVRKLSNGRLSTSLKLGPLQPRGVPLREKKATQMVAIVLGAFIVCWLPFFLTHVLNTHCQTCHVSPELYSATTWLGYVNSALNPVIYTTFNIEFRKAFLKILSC

Matrix metalloproteinase-9, sequence (P14780 whole entry): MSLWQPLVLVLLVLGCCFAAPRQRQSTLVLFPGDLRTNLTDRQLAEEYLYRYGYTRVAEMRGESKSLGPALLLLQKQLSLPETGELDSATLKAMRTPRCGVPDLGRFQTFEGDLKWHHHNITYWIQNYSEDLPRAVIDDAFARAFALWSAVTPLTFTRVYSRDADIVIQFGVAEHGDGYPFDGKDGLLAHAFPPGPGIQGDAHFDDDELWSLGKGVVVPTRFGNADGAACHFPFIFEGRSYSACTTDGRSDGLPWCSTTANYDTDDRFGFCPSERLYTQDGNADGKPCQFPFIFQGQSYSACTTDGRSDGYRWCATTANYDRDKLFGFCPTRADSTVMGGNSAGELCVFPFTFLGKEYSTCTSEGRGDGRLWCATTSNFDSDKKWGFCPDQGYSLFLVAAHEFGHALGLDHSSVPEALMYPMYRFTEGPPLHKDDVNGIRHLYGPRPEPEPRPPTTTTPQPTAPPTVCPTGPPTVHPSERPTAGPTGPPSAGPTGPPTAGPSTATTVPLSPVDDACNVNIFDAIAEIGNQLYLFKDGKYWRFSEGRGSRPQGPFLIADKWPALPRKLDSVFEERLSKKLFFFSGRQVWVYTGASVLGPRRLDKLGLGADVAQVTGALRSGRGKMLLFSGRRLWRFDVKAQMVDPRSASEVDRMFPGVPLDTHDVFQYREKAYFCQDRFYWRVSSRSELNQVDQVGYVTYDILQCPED

CS(=O)(=O)c1ccc([C@@H](O)[C@@H](CO)NC(=O)C(Cl)Cl)cc1 [THIAMPHENICOL]
IC50 [1]: Not Active
IC50 [2]: Not Active
IC50 (Endothelin-1 receptor): Not Active
IC50 [3]: Not Active
IC50 [4]: Not Active
IC50 (D(3) dopamine receptor; cho): Not Active

CCN(CC)CCNC(=O)c1cc(S(C)(=O)=O)ccc1OC [TIAPRIDE]
IC50 [1]: Not Active
IC50 [2]: Not Active
IC50 (Endothelin-1 receptor): Not Active
IC50 [3]: Not Active
IC50 [4]: Not Active
IC50 (D(3) dopamine receptor; read-out: IC50): 1150 nM
Ki (D(3) dopamine receptor; read-out: Ki): 390 nM

Clc1ccccc1CN1CCc2sccc2C1 [TICLOPIDINE]
IC50 [1]: Not Active
IC50 [2]: Not Active
IC50 (Endothelin-1 receptor): Not Active
IC50 [3]: Not Active
IC50 [4]: Not Active
IC50 (D(3) dopamine receptor; cho): Not Active

NC1CCN(c2nc3c(cc2F)c(=O)c(C(=O)O)cn3-c2ccc(F)cc2F)C1 (stereo unspecified) [TOSUFLOXACIN]
IC50 [1]: Not Active
IC50 [2]: Not Active
IC50 (Endothelin-1 receptor): Not Active
IC50 [3]: Not Active
IC50 [4]: Not Active
IC50 (D(3) dopamine receptor; cho): Not Active

O=C(Nc1ccc(Br)cc1)c1cc(Br)cc(Br)c1O [TRIBROMSALAN]
IC50 [1]: Not Active
IC50 [2]: Not Active
IC50 (Endothelin-1 receptor): Not Active
IC50 [3]: Not Active
IC50 ([4]; read-out: IC50): 715 nM
IC50 (D(3) dopamine receptor; cho): Not Active

CC(c1cc2ccccc2s1)N(O)C(N)=O (stereo unspecified) [ZILEUTON]
IC50 [1]: Not Active
IC50 [2]: Not Active
IC50 (Endothelin-1 receptor): Not Active
IC50 [3]: Not Active
IC50 [4]: Not Active
IC50 (D(3) dopamine receptor; cho): Not Active

MANGANESE CHLORIDE ANHYDROUS
IC50 [1]: Not Active
Ki [1]: Not Active
IC50 [2]: Not Active
Ki [2]: Not Active
IC50 (Endothelin-1 receptor): Not Active
Ki (Endothelin-1 receptor): Not Active
IC50 [3]: Not Active
Ki [3]: Not Active
IC50 [4]: Not Active
Ki [4]: Not Active
IC50 (D(3) dopamine receptor; cho): Not Active
Ki (D(3) dopamine receptor; cho): Not Active

SODIUM ORTHOVANAD
IC50 [1]: Not Active
Ki [1]: Not Active
IC50 [2]: Not Active
Ki [2]: Not Active
IC50 (Endothelin-1 receptor): Not Active
Ki (Endothelin-1 receptor): Not Active
IC50 [3]: Not Active
Ki [3]: Not Active
IC50 [4]: Not Active
Ki [4]: Not Active
IC50 (D(3) dopamine receptor; cho): Not Active
Ki (D(3) dopamine receptor; cho): Not Active

From ChEMBL document CHEMBL1909046, “DrugMatrix in vitro pharmacology data”
